Assay results: US20130217050A1, “METHOD FOR DIAGNOSING ALZHEIMER'S DISEASE USING-SOLUBLE GPVI” (MOCHIDA PHARMACEUTICAL CO., LTD., priority 2010, published 2013)

test system: washed monkey platelets; test: sGPVI production mechanism using monkey washed platelets; type: cell-based; details: stimulating agent added to washed platelet suspension with calcium chloride, 37° C. for 1 hour; sGPVI in supernatant by ELISA; compared with control group without stimulating agent (FIG. 8)
Experimental: Human serum and human plasma were prepared by a 100-fold or more dilution with 0.1% BSA, 0.05% Tween 20, and 0.3 M NaCl/D-PBS and added to the F1232-7-1-immobilized plate to incubate at 28° C. for 2 hours. In addition, a recombinant human sGPVI-His that was expressed and purified by Free Style 293 Expression System (manufactured by Invitrogen) was used as the reference material. After the reaction incubation, the plate was washed with physiological saline containing 0.05% Tween 20. F1232-10-2 Fab′-HRP prepared in Example 1 as a secondary labeled antibody was diluted 100-fold with 2% rat serum and 0.05% Tween 20/D-PBS and added to the well to incubate at 28° C. for 1 hour. After washing the plate, tetramethylbenzidine (hereinafter described as TMB) that was returned to room temperature was added, and incubated for 10 minutes. After stopping the reaction by the addition of 0.5 M sulfuric acid, the absorbance at 450 nm was measured using a microplate reader SpectraMax (manufactured by Molecular Devices), and the absorbance at 650 nm was subtracted as a reference. The resulting absorbance was analyzed using a microplate data analysis software (SoftMax Pro 5.2, manufactured by Molecular Devices). In addition, the data was expressed in terms of mean±standard error (SE) in principle.
Whole blood was collected from the monkey's leg vein using sodium citrate as an anticoagulant. Platelet-rich plasma (hereinafter described as PRP) was prepared by centrifuging the obtained whole blood at 900 rpm×10 minutes, and only PRP fraction was separated gently by PIPETMAN to transfer it to a new tube. The PRP was centrifuged at 2000 rpm×10 minutes at room temperature to precipitate the platelets. […] The number of platelets was counted by Sysmex F-820 (To a Medical Electronics Co., Ltd.), and the platelet count was adjusted to 40.0×10^7/ml. […]
The production of sGPVI was examined by adding various stimulating agents such as collagen, sAβ, or fAβ, to monkey washed platelets. […] The concentration of sGPVI in the reaction mixture was measured by the ELISA method as described in Example 2.

Substance	production of sGPVI
collagen	production of sGPVI was observed
fibril Aβ: Aβ1-42 incubated at room temperature for one week after the dilution in D-PBS, used as fibril amyloid β	production of sGPVI was observed
sAβ: Aβ1-42 (AnaSpec Inc) just after diluted in D-PBS, used as soluble amyloid β	production of sGPVI was not observed
